# Measured values reported in US20220389515A1, “USE OF BIOMARKERS TO PREDICT CLINICAL SENSITIVITY TO 2-(4-CHLOROPHENYL)-N-((2-(2,6-DIOXOPIPERIDIN-3-YL)-1-OXOISOINDOLIN-5-YL)METHYL)-2,2-DIFLUOROACETAMIDE” (priority 2019, published 2022).
# Columns and labels:
# [1] = relative humidity increased from about 0% to about 90% RH; cited from earlier work
# GSPT1 = biological target: T1, GSPT1 (Homo sapiens, UniProt P15170); assay: Immunoblot analysis of Compound D-induced GSPT1 degradation in AML cells; assay type: cell-based; conditions: U937 parental, TSC1-/- and TSC2-/- cells
# T1 construct: endogenous in cells; host or cells: KG-1 (TMT proteomics); KG1, U937 / U937-Cas9, MOLM-13, OCI-AML2 (immunoblots)
# Experimental: FIG. 2A illustrates the volcano plot of differentially abundant proteins in response to Compound D treatment relative to the DMSO control. KG1 cells were treated with DMSO or 100 nM Compound D for 4 hours and subjected to TMT proteomics analysis. The X-axis denotes the log 2-fold change of Compound D versus the DMSO control for each protein. P-values were corrected for multiple hypothesis testing using the Benjamini-Hoschberg method to arrive at an adjusted-P-value (adj-P, also known as a false discovery rate). The y-axis denotes the −log 10 (adj-P) values indicating statistical significance such that proteins lying above the dotted red line are statistically significant findings with adjusted P-values<0.05. FIG. 2B illustrates the immunoblot analysis of KG1 and U937 cells treated with DMSO or Compound D for 4 hours. Where indicated, cells were pretreated with Bortezomib or MLN4924 for 30 minutes. FIGS. 2C and 2D illustrate the immunoblot analysis (FIG. 2C) and cell proliferation (FIG. 2D) of U937-Cas9 parental cells or cells stably transduced with lentiviral vectors expressing a non-targeting sgRNA (sgNT-1), a sgRNA targeting a non-coding region (sgNC-8), or a sgRNA targeting CRBN(sgCRBN-8). Cells were treated with DMSO or Compound D at indicated concentrations. FIGS. 2E and 2F illustrate the immunoblot analysis (left panel) and cell proliferation (right panel) of MOLM-13 (FIG. 2E) and OCI-AML2 (FIG. 2F) parental and CRBN−/− cells. Cells were treated with DMSO or Compound D at indicated concentrations. Results shown in all figure panels are representative of three biological replicates. Data in FIGS. 2D, 2E (right panel), and 2F (right panel) are shown as mean±SD, n=3 technical replicates.
# FIG. 3A illustrates FLAG-HA tagged cereblon wild-type (FLAG-HA-CRBN) or Y384A/W386A mutant (FLAG-HA-YWAA) produced in 293FT CRBN−/− cells was used to capture V5 tagged GSPT1 (GSPT1-V5) and V5 tagged IKZF1 (IKZF1-V5) transiently expressed in 293FT CRBN−/− cells. […] FIG. 3B illustrates the surface representation of GSPT1 in complex with cereblon, DDB1 and Compound D, with DDB1 shown in purple, cereblon in blue, and GSPT1 in orange. The position of Compound D is shown with a white arrow. FIG. 3C illustrates the Fo-Fc omit electron density (green mesh) for Compound D (yellow sticks) contoured at 3.06. FIG. 3D illustrates GSPT1's interaction with cereblon is mediated by a β-hairpin loop. Hydrogen bond interactions between cereblon and the GPST1 β-hairpin are shown as yellow dashes. FIG. 3E illustrates details of the binding interface between cereblon and GSPT1. Compound D is represented as yellow sticks. Predicted polar interactions between Compound D and cereblon are shown as yellow dashes. FIG. 3F illustrates the immunoblot analysis of U937 parental cells or cells stably expressing HA-GSPT1-G575N. Cells were treated with DMSO or Compound D at the indicated concentrations. FIGS. 3G and 311 illustrate the immunoblot analysis (left panel) and cell proliferation (right panel) of MOLM-13 (FIG. 3G) and OCI-AML2 (FIG. 311) parental cells and cells stably expressing HA tagged GSPT1-G575N. Cells were treated with DMSO or Compound D at indicated concentrations.
# Like all other cereblon modulators, Compound D contains a glutarimide ring (FIG. 1A) that can bind cereblon and redirect it to target neosubstrates for degradation. Thus, the effect of Compound D on the global proteome in AML cell line KG-1 was assessed using tandem mass tag (TMT) quantitative mass spectrometry.
# Specifically, U937 cells stably expressing Cas9 were infected with lentiviral vectors constitutively expressing RFP and non-targeting or non-coding sgRNA (sgNT) controls, or sgRNAs targeting TSC1 or TSC2. Infected cells were selected with 1 μg/ml puromycin. […]
# Ikaros = Ikaros (Homo sapiens, UniProt Q13422+Q96SW2); conditions: U937-Cas9; 18 hours
# Experimental: Cells were treated with DMSO or Compound D in the presence of cycloheximide. FIGS. 8D and 8E show the immunoblot analysis of U937-Cas9 cells stably expressing HA-tagged GSPT1 and the indicated sgRNAs. Cells were treated with DMSO, Compound D (FIG. 8D) or pomalidomide (POM; FIG. 8E) at the indicated concentrations for 18 hours.
# To understand whether the effect of mTOR activation on Compound D-induced GSPT1 degradation can be ascribed to an increased rate of GSPT1 protein synthesis and/or a decreased rate of GSPT1 degradation, the change of GSPT1 protein half-life in response to TSC1 or TSC2 loss in the presence or absence of Compound D was determined.
# T1 sequence (P15170 1-637 isoform P15170-3): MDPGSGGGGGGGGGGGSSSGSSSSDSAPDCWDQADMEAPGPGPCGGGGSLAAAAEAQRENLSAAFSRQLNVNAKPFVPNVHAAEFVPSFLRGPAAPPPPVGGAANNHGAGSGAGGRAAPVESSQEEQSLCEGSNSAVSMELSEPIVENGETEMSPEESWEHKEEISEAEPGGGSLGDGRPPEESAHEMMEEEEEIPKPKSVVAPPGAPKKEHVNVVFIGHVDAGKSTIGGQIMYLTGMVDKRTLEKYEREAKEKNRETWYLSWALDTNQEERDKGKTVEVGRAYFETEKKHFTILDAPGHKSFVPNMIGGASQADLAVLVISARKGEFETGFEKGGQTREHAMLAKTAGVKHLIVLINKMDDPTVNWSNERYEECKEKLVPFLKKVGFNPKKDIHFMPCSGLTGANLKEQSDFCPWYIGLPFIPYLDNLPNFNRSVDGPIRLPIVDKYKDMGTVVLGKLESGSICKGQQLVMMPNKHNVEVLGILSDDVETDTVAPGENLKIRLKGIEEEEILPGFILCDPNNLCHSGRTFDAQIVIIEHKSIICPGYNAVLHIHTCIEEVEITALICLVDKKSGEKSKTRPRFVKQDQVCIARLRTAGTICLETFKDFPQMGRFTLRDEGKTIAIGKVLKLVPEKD
# T1 sequence (Q96SW2 whole entry partner): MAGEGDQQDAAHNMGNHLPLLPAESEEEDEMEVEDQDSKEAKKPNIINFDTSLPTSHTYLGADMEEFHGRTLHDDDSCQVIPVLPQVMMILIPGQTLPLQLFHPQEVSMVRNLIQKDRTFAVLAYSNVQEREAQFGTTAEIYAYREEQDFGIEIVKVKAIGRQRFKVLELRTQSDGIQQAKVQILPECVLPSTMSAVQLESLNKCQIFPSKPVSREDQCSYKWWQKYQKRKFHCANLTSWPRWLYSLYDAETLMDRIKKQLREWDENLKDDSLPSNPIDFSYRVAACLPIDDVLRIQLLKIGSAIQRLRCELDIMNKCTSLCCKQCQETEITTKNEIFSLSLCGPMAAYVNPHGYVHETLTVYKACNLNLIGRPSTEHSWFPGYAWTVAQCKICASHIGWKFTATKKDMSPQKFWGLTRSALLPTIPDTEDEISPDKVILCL
# T1 sequence (Q16531 2-1140 partner): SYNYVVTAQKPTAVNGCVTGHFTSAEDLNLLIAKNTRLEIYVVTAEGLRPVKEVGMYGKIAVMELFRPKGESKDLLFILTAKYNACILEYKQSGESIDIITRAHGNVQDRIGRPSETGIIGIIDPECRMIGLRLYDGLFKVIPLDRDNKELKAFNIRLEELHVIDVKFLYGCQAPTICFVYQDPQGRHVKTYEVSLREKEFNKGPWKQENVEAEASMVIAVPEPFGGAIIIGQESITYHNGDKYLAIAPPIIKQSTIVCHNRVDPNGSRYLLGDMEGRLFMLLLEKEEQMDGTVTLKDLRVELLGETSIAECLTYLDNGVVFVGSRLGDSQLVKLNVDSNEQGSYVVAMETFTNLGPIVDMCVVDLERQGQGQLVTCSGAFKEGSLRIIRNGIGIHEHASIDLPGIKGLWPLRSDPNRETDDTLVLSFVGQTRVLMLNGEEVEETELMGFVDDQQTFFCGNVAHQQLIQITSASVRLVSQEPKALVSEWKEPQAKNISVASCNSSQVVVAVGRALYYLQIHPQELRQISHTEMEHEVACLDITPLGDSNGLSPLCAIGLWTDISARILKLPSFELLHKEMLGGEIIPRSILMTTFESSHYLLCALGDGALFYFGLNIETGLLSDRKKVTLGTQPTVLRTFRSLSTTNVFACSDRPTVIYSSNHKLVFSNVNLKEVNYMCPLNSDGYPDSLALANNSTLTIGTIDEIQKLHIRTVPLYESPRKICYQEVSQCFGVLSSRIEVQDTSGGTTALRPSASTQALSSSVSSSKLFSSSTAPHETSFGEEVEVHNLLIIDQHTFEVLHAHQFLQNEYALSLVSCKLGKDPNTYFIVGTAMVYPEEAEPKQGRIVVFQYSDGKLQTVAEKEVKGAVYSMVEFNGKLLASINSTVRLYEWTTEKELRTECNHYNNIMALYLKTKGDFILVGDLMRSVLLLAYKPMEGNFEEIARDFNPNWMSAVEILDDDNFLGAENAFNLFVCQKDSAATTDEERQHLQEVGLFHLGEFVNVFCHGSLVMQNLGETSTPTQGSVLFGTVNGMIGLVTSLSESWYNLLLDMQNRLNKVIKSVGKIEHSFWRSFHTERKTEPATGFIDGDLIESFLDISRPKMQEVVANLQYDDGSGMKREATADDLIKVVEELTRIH
# Ikaros, sequence (Q96SW2 whole entry): as the sequence (Q96SW2 whole entry partner) above
# Ikaros, sequence (Q13422 whole entry): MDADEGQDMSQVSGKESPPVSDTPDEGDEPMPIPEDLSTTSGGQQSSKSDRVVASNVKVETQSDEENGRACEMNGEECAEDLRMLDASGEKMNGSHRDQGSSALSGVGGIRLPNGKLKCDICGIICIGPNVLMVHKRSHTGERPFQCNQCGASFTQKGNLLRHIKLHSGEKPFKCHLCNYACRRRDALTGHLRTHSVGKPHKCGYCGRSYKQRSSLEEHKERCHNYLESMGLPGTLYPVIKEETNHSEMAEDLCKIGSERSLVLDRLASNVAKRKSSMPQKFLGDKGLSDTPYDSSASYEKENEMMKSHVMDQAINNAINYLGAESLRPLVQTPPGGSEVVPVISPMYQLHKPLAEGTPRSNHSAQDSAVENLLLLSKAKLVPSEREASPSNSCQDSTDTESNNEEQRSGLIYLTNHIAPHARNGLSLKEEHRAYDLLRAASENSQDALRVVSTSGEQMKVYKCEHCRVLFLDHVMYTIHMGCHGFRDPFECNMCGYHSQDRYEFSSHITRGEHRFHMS
# Ikaros, sequence (Q16531 whole entry, further chain): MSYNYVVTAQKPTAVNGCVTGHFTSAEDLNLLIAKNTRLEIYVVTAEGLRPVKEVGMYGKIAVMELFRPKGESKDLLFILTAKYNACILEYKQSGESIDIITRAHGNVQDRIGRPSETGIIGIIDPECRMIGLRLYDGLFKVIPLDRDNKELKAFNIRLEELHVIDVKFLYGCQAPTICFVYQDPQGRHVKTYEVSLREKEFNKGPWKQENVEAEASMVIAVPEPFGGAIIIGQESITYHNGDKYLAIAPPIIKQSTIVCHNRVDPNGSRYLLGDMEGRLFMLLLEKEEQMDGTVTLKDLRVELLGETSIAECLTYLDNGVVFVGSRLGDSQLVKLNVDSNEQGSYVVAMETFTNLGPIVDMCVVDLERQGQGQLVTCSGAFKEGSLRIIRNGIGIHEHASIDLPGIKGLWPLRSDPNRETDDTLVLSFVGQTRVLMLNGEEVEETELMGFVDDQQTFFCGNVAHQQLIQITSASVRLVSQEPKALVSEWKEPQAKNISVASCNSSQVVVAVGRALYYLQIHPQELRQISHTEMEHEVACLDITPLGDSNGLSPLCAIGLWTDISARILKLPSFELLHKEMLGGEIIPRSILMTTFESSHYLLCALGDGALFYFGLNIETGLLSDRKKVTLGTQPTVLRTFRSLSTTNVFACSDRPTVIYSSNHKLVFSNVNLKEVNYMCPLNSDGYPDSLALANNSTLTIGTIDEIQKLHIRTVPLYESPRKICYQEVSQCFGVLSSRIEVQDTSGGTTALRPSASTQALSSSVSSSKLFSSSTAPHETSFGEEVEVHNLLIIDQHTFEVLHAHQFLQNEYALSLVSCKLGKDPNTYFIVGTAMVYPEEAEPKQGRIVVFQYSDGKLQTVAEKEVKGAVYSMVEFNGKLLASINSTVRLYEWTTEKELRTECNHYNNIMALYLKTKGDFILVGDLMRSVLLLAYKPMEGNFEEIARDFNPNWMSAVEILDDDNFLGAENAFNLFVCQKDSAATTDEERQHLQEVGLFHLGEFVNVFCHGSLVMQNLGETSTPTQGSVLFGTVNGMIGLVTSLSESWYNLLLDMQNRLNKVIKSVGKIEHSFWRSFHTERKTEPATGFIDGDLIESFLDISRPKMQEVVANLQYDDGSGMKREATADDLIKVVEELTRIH
Structure (SMILES),water uptake [1],also measured
"O=C1CCC(N2Cc3cc(CNC(=O)C(F)(F)c4ccc(Cl)cc4)ccc3C2=O)C(=O)N1 (centres unmarked) [Form A, 2-(4-chlorophenyl)-N-((2-(2,6-dioxopiperidin-3-yl)-1-oxoisoindolin-5-yl)methyl)-2,2-difluoroacetamide]",about 1.2 % w/w,
"O=C1CCC(N2Cc3cc(CNC(=O)C(F)(F)c4ccc(Cl)cc4)ccc3C2=O)C(=O)N1 (centres unmarked) [Form B, 2-(4-chlorophenyl)-N-((2-(2,6-dioxopiperidin-3-yl)-1-oxoisoindolin-5-yl)methyl)-2,2-difluoroacetamide]",about 1.4 % w/w,
"O=C1CCC(N2Cc3cc(CNC(=O)C(F)(F)c4ccc(Cl)cc4)ccc3C2=O)C(=O)N1 (centres unmarked) [Form C, 2-(4-chlorophenyl)-N-((2-(2,6-dioxopiperidin-3-yl)-1-oxoisoindolin-5-yl)methyl)-2,2-difluoroacetamide]",about 0.6 % w/w,
"C[C@@H]1C[C@@H]([C@H](O)CC2CC(=O)NC(=O)C2)C(=O)[C@@H](C)C1 [cycloheximide, reference compound]",,"protein level of GSPT1, cycloheximide treatment alone (GSPT1): did not show much effect on the protein level of GSPT1"
Nc1cccc2c1C(=O)N(C1CCC(=O)NC1=O)C2=O (centres unmarked) [pomalidomide],,degradation of Ikaros under TSC1 or TSC2 deficiency (Ikaros): did not affect the degradation of Ikaros by pomalidomide
